Results from patent US20230104936A1, “TRPML MODULATORS” (Casma Therapeutics, Inc., priority 2019, published 2023).

System: TFEB
Experiment: TFEB nuclear translocation assay, HeLa wt cells
Assay type: cell-based
Conditions: Homo sapiens, HeLa, 2 h, 2 hrs compound treatment, Table 1 does not say HeLa wt or TRPML1 KO
Outline: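 HeLa wt, 2 hr compound, 37° C; 4% PFA fix; anti-TFEB (rabbit, 1:200, overnight 4° C) + Alexa 488 secondary, Hoechst. Imaged ×20, 4 fields/well. Readout: nuclear/ring Alexa 488 intensity ratio; AC50.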

Row | Compound | AC50 [µM]
1 | CN(C)S(=O)(=O)c1ccc(S(=O)(=O)Nc2ccccc2N2CCC(c3ccc(Cl)cc3)CC2)cc1 [Compound A-47, N4-{2-[4-(4-chlorophenyl)piperidin-1-yl]phenyl}-N1,N1-dimethylbenzene-1,4-disulfonamide] | ≤ 2
2 | CNC(=O)c1ccc(S(=O)(=O)Nc2ccccc2N2CCC(c3ccc(Cl)cc3F)CC2)cc1 [Compound A-48, 4-({2-[4-(4-chloro-2-fluorophenyl)piperidin-1-yl]phenyl}sulfamoyl)-N-methylbenzamide] | ≥ 10
3 | O=C(c1ccc(S(=O)(=O)Nc2ccccc2N2CCC(c3ccc(Cl)cc3F)CC2)cc1)N1CCCC1 [Compound A-49, N-{2-[4-(4-chloro-2-fluorophenyl)piperidin-1-yl]phenyl}-4-(pyrrolidine-1-carbonyl)benzene-1-sulfonamide] | ≥ 10
4 | Cc1nn(S(=O)(=O)c2ccc(S(=O)(=O)N(C)C)cc2)cc1N1CCC(c2ccc(Cl)cc2F)CC1 [Compound A-50, 4-((4-(4-(4-chloro-2-fluorophenyl)piperidin-1-yl)-3-methyl-1H-pyrazol-1-yl)sulfonyl)-N,N-dimethylbenzenesulfonamide] | 2.01 to 8
5 | CN(C)S(=O)(=O)c1ccc(S(=O)(=O)Nc2ccccc2N2CCN(c3ncccc3F)CC2)cc1 [Compound A-51, N4-{2-[4-(3-fluoropyridin-2-yl)piperazin-1-yl]phenyl}-N1,N1-dimethylbenzene-1,4-disulfonamide] | 2.01 to 8
6 | CN(C)S(=O)(=O)c1ccc(S(=O)(=O)Nc2ccccc2N2CCN(C3CC3)CC2)cc1 [Compound A-52, N4-[2-(4-cyclopropylpiperazin-1-yl)phenyl]-N1,N1-dimethylbenzene-1,4-disulfonamide] | ≤ 2
7 | CN(C)S(=O)(=O)c1ccc(S(=O)(=O)Nc2ccccc2N2CCN(C3CCCCC3)CC2)cc1 [Compound A-53, N4-[2-(4-cyclohexylpiperazin-1-yl)phenyl]-N1,N1-dimethylbenzene-1,4-disulfonamide] | 2.01 to 8
8 | CN1CCN(c2ccccc2NS(=O)(=O)c2ccc(S(=O)(=O)N(C)C)cc2)CC1 [Compound A-54, N1,N1-dimethyl-N4-[2-(4-methylpiperazin-1-yl)phenyl]benzene-1,4-disulfonamide] | ≥ 10
9 | CN(C)S(=O)(=O)c1ccc(S(=O)(=O)Nc2nn(C)cc2C2CCN(c3ccc(Cl)cc3F)CC2)cc1 [Compound A-55, N1-(4-(1-(4-chloro-2-fluorophenyl)piperidin-4-yl)-1-methyl-1H-pyrazol-3-yl)-N4,N4-dimethylbenzene-1,4-disulfonamide] | ≤ 2
10 | CN(C)S(=O)(=O)c1ccc(S(=O)(=O)Nc2ccccc2N2CC(c3ccc(Cl)cc3)C2)cc1 [Compound A-56, N4-{2-[3-(4-chlorophenyl)azetidin-1-yl]phenyl}-N1,N1-dimethylbenzene-1,4-disulfonamide] | 2.01 to 8
11 | CN(C)S(=O)(=O)c1ccc(S(=O)(=O)Nc2ccccc2N2CCN(c3ccncc3F)CC2)cc1 [Compound A-57, N4-{2-[4-(3-fluoropyridin-4-yl)piperazin-1-yl]phenyl}-N1,N1-dimethylbenzene-1,4-disulfonamide] | 2.01 to 8
12 | CN1CC2CN(c3ccccc3NS(=O)(=O)c3ccc(S(=O)(=O)N(C)C)cc3)CC2C1 (stereo not shown) [Compound A-58, N1,N1-dimethyl-N4-(2-{5-methyl-octahydropyrrolo[3,4-c]pyrrol-2-yl}phenyl)benzene-1,4-disulfonamide] | ≥ 10
13 | CN(C)S(=O)(=O)c1ccc(S(=O)(=O)Nc2nc(N3CCN(c4ccc(Cl)cc4F)CC3)n(C)n2)cc1 [Compound A-59, N1-(5-(4-(4-chloro-2-fluorophenyl)piperazin-1-yl)-1-methyl-1H-1,2,4-triazol-3-yl)-N4,N4-dimethylbenzene-1,4-disulfonamide] | ≥ 10
14 | CN(C)S(=O)(=O)c1ccc(S(=O)(=O)Nc2ccccc2N2CCC(c3cnn(C)c3)CC2)cc1 [Compound A-60, N1,N1-dimethyl-N4-{2-[4-(1-methyl-1H-pyrazol-4-yl)piperidin-1-yl]phenyl}benzene-1,4-disulfonamide] | 2.01 to 8
15 | CN1Cc2cc(S(=O)(=O)Nc3ccccc3N3CCC(c4ccc(Cl)cc4F)CC3)ccc2C1=O [Compound A-61, N-{2-[4-(4-chloro-2-fluorophenyl)piperidin-1-yl]phenyl}-2-methyl-1-oxo-2,3-dihydro-1H-isoindole-5-sulfonamide] | ≥ 10
16 | CN(C)S(=O)(=O)c1ccc(S(=O)(=O)n2cnc(N3CCC(c4ccc(Cl)cc4F)CC3)n2)cc1 [Compound A-62, 4-((3-(4-(4-chloro-2-fluorophenyl)piperidin-1-yl)-1H-1,2,4-triazol-1-yl)sulfonyl)-N,N-dimethylbenzenesulfonamide] | 8.01 to 9.99
17 | CN(C)S(=O)(=O)c1ccc(S(=O)(=O)n2c(=O)n(C3CCN(c4ccc(Cl)cc4F)CC3)c3ccccc32)cc1 [Compound A-63, 4-({3-[1-(4-chloro-2-fluorophenyl)piperidin-4-yl]-2-oxo-2,3-dihydro-1H-1,3-benzodiazol-1-yl}sulfonyl)-N,N-dimethylbenzene-1-sulfonamide] | 2.01 to 8

Row | Compound | AC50 [µM]
18 | CN(C)S(=O)(=O)c1ccc(S(=O)(=O)Nc2nnc(C3CCN(c4ccc(Cl)cc4F)CC3)s2)cc1 [Compound A-64, N1-(5-(1-(4-chloro-2-fluorophenyl)piperidin-4-yl)-1,3,4-thiadiazol-2-yl)-N4,N4-dimethylbenzene-1,4-disulfonamide] | ≥ 10
19 | Cc1noc(NS(=O)(=O)c2ccc(S(=O)(=O)N(C)C)cc2)c1C1=CCN(c2ccc(Cl)cc2F)CC1 [Compound A-65, N1-(4-(1-(4-chloro-2-fluorophenyl)-1,2,3,6-tetrahydropyridin-4-yl)-3-methylisoxazol-5-yl)-N4,N4-dimethylbenzene-1,4-disulfonamide] | ≥ 10
20 | CP(=O)(Nc1ccccc1N1CCC(c2ccc(Cl)cc2F)CC1)c1ccccc1 (stereo not shown) [Compound A-66, 4-(4-chloro-2-fluorophenyl)-1-(2-{[methyl(phenyl)phosphoryl]amino}phenyl)piperidine] | ≥ 10
21 | CN(C)S(=O)(=O)c1ccc(S(=O)(=O)n2ccn(C3CCN(c4ccc(Cl)cc4F)CC3)c2=O)cc1 [Compound A-67, 4-((3-(1-(4-chloro-2-fluorophenyl)piperidin-4-yl)-2-oxo-2,3-dihydro-1H-imidazol-1-yl)sulfonyl)-N,N-dimethylbenzenesulfonamide] | ≥ 10
22 | CN(C)S(=O)(=O)c1ccc(S(=O)(=O)Nc2nc(N3CCN(c4ccc(Cl)cc4F)CC3)nn2C)cc1 [Compound A-68, N1-(3-(4-(4-chloro-2-fluorophenyl)piperazin-1-yl)-1-methyl-1H-1,2,4-triazol-5-yl)-N4,N4-dimethylbenzene-1,4-disulfonamide] | ≥ 10
23 | CN(C)S(=O)(=O)c1ccc(S(=O)(=O)Nc2ccccc2[C@H]2CC[C@@H](c3ccc(Cl)cc3F)CC2)cc1 [Compound A-69, N1-(2-(4-(4-chloro-2-fluorophenyl)cyclohexyl)phenyl)-N4,N4-dimethylbenzene-1,4-disulfonamide] | 2.01 to 8
24 | CN(C)S(=O)(=O)c1ccc(S(=O)(=O)Nc2ccccc2[C@H]2CC[C@H](c3ccc(Cl)cc3F)CC2)cc1 [Compound A-70, N1-(2-(4-(4-chloro-2-fluorophenyl)cyclohexyl)phenyl)-N4,N4-dimethylbenzene-1,4-disulfonamide] | ≤ 2
25 | CN(C)S(=O)(=O)c1ccc(S(=O)(=O)N2CCC(N3CCC(c4ccc(Cl)cc4F)CC3)C2=O)cc1 (stereo not shown) [Compound A-71, 4-((3-(4-(4-chloro-2-fluorophenyl)piperidin-1-yl)-2-oxopyrrolidin-1-yl)sulfonyl)-N,N-dimethylbenzenesulfonamide] | ≥ 10
26 | Cc1ccc(S(=O)(=O)Nc2ccccc2N2CCC(c3ccc(Cl)cc3F)CC2)cc1 [Compound A-72, N-{2-[4-(4-chloro-2-fluorophenyl)piperidin-1-yl]phenyl}-4-methylbenzene-1-sulfonamide] | ≤ 2
27 | O=S(=O)(Nc1ccccc1N1CCC(c2ccc(Cl)cc2F)CC1)c1ccc(Cl)cc1 [Compound A-73, 4-chloro-N-{2-[4-(4-chloro-2-fluorophenyl)piperidin-1-yl]phenyl}benzene-1-sulfonamide] | ≤ 2
28 | O=S(=O)(Nc1ccccc1N1CCC(c2ccc(Cl)cc2F)CC1)c1ccc(F)cc1 [Compound A-74, N-{2-[4-(4-chloro-2-fluorophenyl)piperidin-1-yl]phenyl}-4-fluorobenzene-1-sulfonamide] | 2.01 to 8
29 | Cc1nn(C)c(NS(=O)(=O)c2ccc(S(=O)(=O)N(C)C)cc2)c1C1CCN(c2ccc(Cl)cc2F)CC1 [Compound A-75, N1-(4-(1-(4-chloro-2-fluorophenyl)piperidin-4-yl)-1,3-dimethyl-1H-pyrazol-5-yl)-N4,N4-dimethylbenzene-1,4-disulfonamide] | ≥ 10
30 | O=S(=O)(Nc1ccccc1N1CCC(c2ccc(Cl)cc2F)CC1)c1ccccc1Cl [Compound A-76, 2-chloro-N-{2-[4-(4-chloro-2-fluorophenyl)piperidin-1-yl]phenyl}benzene-1-sulfonamide] | ≥ 10
31 | O=S(=O)(Nc1ccccc1N1CCC(c2ccc(Cl)cc2F)CC1)c1cccc(Cl)c1 [Compound A-77, 3-chloro-N-{2-[4-(4-chloro-2-fluorophenyl)piperidin-1-yl]phenyl}benzene-1-sulfonamide] | ≤ 2
32 | O=S(=O)(Nc1ccccc1N1CCC(c2ccc(Cl)cc2F)CC1)c1cccc(F)c1 [Compound A-78, N-{2-[4-(4-chloro-2-fluorophenyl)piperidin-1-yl]phenyl}-3-fluorobenzene-1-sulfonamide] | ≥ 10
33 | O=S(=O)(Nc1ccccc1N1CCC(c2ccc(Cl)cc2F)CC1)c1ccccc1F [Compound A-79, N-{2-[4-(4-chloro-2-fluorophenyl)piperidin-1-yl]phenyl}-2-fluorobenzene-1-sulfonamide] | ≥ 10
34 | O=S(=O)(Nc1ccccc1N1CCC(c2ccc(Cl)cc2F)CC1)c1ccc(F)c(F)c1 [Compound A-80, N-{2-[4-(4-chloro-2-fluorophenyl)piperidin-1-yl]phenyl}-3,4-difluorobenzene-1-sulfonamide] | 2.01 to 8
